# Molecular target: RSL lectin (fucose binding lectin RSL) (Ralstonia pseudosolanacearum, UniProt Q8XXK6)
# Experiment: biochemical
compound,measurement,value
CO[C@@H]1O[C@@H](C)[C@@H](O)[C@@H](O)[C@@H]1O [α-L-Me-fucoside],Kd,0.6 µM

# Reference: article PMC3466270 (PLoS ONE, 2012)
